Where a name gives a salt, the structure may show the parent alone.
How the values were obtained:
[1] = test system: Primary adult dermal lymphatic endothelial cells (LECs); assay: Cultured lymphatic endothelial cells (LECs) exposed to IsoLG-modified apoAI; format: cell-based; conditions: apoAI 10 μg/ml, IsoLG 1 μM/L, 18 h, vs unmodified apoAI
Description: Primary adult dermal lymphatic endothelial cells (LECs) (HMVEC-DLyAd, Lonza) were cultured with conditioned growth medium (Lonza). Cells at passage 5-6 with ˜70% confluence were starved in serum-free medium overnight, then incubated with unmodified or IsoLG-modified apoAI (apoAI: 10 μg/ml, IsoLG: 1 μM/L) for 18 h. […] Quantification of eNOS (Nos3) and β-actin (ACTB) mRNA was performed by RT-PCR and production of superoxide was assessed by high-performance liquid chromatography.

[2] = test system: isolated mesenteric lymphatic vessels; assay: Lymphatic dynamics ex vivo, isolated mesenteric lymphatic vessels
Description: Mesenteric lymphatic vessels were collected and mounted in a perfusion chamber. Chambers were placed on inverted microscopes equipped with a digital image capture system (IonOptix) to record pre-valve intraluminal diameters and frequency of contractions. Vessels were warmed to 37° C., pressurized to 0.5 mmHg using a column of Krebs buffer, and allowed to equilibrate (20-60 minutes). Viable vessels were then pressurized in a stepwise manner to a constant pressure of 3.5 mmHg, then exposed to purified apoAI or modified apoAI using 1 molar equivalent synthetic IsoLG or vehicle (DMSO). Fresh Krebs buffer was circulated to facilitate wash out. Next vessels were exposed to IsoLG-modified apoAI. After each challenge, lumen diameters were allowed to plateau (40-60 minutes).

THP-1 cells = assay: VEGFC mRNA in THP-1 derived macrophages; format: cell-based; conditions: apoAI 10 μg/ml, IsoLG 1 μM/L, 48 h, vs unmodified apoAI, FIG. 6D
Description: THP-1 cells were plated and differentiated into macrophages by […] containing 10% FBS and 50 ng/ml phorbol 12-myristate 13-acetate for 3 days. Cells were incubated with unmodified or IsoLG-modified apoAI (apoAI: 10 μg/ml, IsoLG: 1 μM/L) for 48 h. VEGFC mRNA was assessed by RT-PCR.

Sprague Dawley rats = conditions: rat, in vivo, ip, 125 mg/kg
Description: Adult male Sprague Dawley rats (200-225 g, Charles River) were housed under a 12-h light/dark cycle with free access to normal rat chow and water. Kidney injury was induced by a single injection of puromycin […] (PAN) (125 mg/kg body weight, i.p.) while saline-injected rats served as controls (Cont). Eight days after injection, rats were sacrificed and blood, urine, and tissues were harvested. We also studied adult male (12 weeks old) Nphs1-hCD25 transgenic (NEP25, C57 bl/6 background) mice expressing human CD25 on podocytes can be selectively injured by injection of recombinant immunotoxin, anti-Tac (Fv)-PE38 (LMB2, 1 ng/g BW, i.v. generously provided by Dr. Ira Pastan) that results in proteinuria. These and wild type control mice were housed under normal conditions with free access to regular rodent chow and water. Two weeks after LMB2, mice were sacrificed and blood, urine and tissues harvested. All animal procedures were approved by the Institutional Animal Care and Use Committee at Vanderbilt University.
Mesenteric lymph was collected in a subset of conscious rats following cannulation of the mesenteric lymph duct. The rats were placed in Bollman cages in a temperature- and humidity-controlled incubator and lymph collected hourly for at least 3 h.
(§1) Albumin (Exocell), apoAI (Mybiosource), sphingosine-1 phosphate (S1P) (Mybiosource) and VEGF-C levels (Mybiosource) were measured by ELISA. Albuminuria was measured as urine albumin-to-creatinine ratio (ACR) (Nephrat II, Exocell) and QuantiChrom™ Creatinine Assay Kit (Bioassay Systems), respectively. Plasma and lymph total cholesterol and triglycerides were measured enzymatically (Cliniqa). HDL and LDL fractions were isolated from plasma and lymph by density-gradient ultracentrifugation after adjustment with potassium bromide. Lipoprotein particle size was evaluated by NMR methodology (Liposcience). Colorimetric assays were used to measure protein (BCA, ThermoFisher). Lipoproteins in plasma and lymph were separated by size-exclusion chromatography (SEC) using an Akta Pure fast-protein liquid chromatography (FPLC) system (GE Healthcare). Total IsoLG-protein adduct by LC/MS was measured as IsoLG-lysine after complete proteolytic digestion of lymph samples.

ileal organoids = assay: IsoLG adduct production in cultured ileal organoids (enteroids); format: cell-based; conditions: 1 mmol/L, 3 days, vs vehicle, FIG. 4C
Description: as §1
Intact perfused intestine was used to generate ileal organoids. Cultured ileal organoids were incubated in medium with or without indoxyl sulfate (1 mmol/L, Sigma) for 3 days. Total protein was extracted for quantitation of IsoLG.

IsoLG-apoAI: purified apoAI modified using 1 molar equivalent synthetic IsoLG
production of ROS ([1]; FIG. 5A): significantly greater production of ROS | eNOS (Nos3) gene expression ([1]; FIG. 5B): increased Nos3 | end-systolic diameter (ESD) ([2]; FIG. 5D): failed to significantly alter | end-diastolic diameter (EDD) ([2]; FIG. 5E): significantly decreased | amplitude of contraction ([2]; FIG. 5F): significantly reduced | frequency of contractions ([2]; vs unmodified apoAI, FIG. 5C): increased frequency of contractions | VEGFC mRNA expression (THP-1 cells): significantly increased

CN(C)c1ncnc2c1ncn2[C@@H]1O[C@H](CO)[C@@H](N)[C@H]1O [PAN, puromycin aminoglycoside]
ACR (albumin/creatinine concentration ratio) (Sprague Dawley rats): 126.652 ± 13.283 mg/mg | Plasma Albumin (Sprague Dawley rats): 350.7 ± 27.3 mg/dL | Plasma Cholesterol (Sprague Dawley rats): 236.6 ± 36.8 mg/dL | Plasma Triglyceride (Sprague Dawley rats): 132.1 ± 19.2 mg/dL

O=S(=O)(O)Oc1c[nH]c2ccccc12 [indoxyl sulfate]
IsoLG adduct production (ileal organoids): significantly increased

From US20230355549A1, “METHOD OF PREVENTING KIDNEY INJURY DISRUPTION OF INTESTINAL LYMPHATICS” (Vanderbilt University, priority 2020, published 2023)
